Patent US20180221241A1, “ENHANCEMENT OF VASODILATORY FUNCTION AND LOWERING OF EFFECTIVE SYSTEMIC VASCULAR RESISTANCE” (THE GOVERNORS OF THE UNIVERSITY OF ALBERTA, priority 2015, published 2018)

System: second order mesenteric resistance arteries
Experiment: Pressure myograph system, vessel lumen diameter under controlled barometric pressure
Design: species or system mice
Conditions: for maximal increase in lumen diameter, cumulative response curve to methylcholine: doses 1 nM to 1 μM, barometric pressure PB674; for constriction or relaxation of vessel to drug administered in the bath: vessels immersed in Ca2+-free solution, n=7, p>0.05
Protocol: Four-month-old male C57 mice were given access to standard chow and water ad-libitum and were housed on a 12 h-12 h light-dark cycle. Mice were euthanized through sodium pentobarbital administered interperitonially, and their mesenteries were removed and placed in freshly prepared cold physiological salt solution (10 HEPES, 5.5 glucose, 1.56 CaCl2, 4.7 KCl, 142 NaCl, 1.17 MgSO4, 1.18 KH2PO4, pH 7.5.).
Two second order resistance arteries were dissected of surrounding connective tissue and mounted within a pressure myograph system (Living Systems Instrumentation; Burlington, Vt.). Vessels were tied onto glass cannulas with microscopic suture thread segments. Each vessel was immersed in a physiological salt solution bath, maintained at a temperature of 37° C. with the aid of a built-in temperature feedback mechanism connected to a miniature heating system. Intravascular pressure and flow were measured and alterable using pressure and flow control systems. A peristaltic pump was used to maintain specific rates of flow across the lumens vessels mounted in the pressure myograph system. To mimic physiological conditions as best as possible, the vessels were oriented as such that flow would be applied in the same direction as in vivo blood flow. The vessels were maintained at a perfusion pressure of 60 mmHg, the approximated in vivo mesentery arterial pressure of mice.
Vessels were exposed to phenylephrine and methylcholine before the start of every protocol to ensure the vessel was intact and capable of responding to pressure and flow stimuli. In some protocols, one bath of the pressure myograph was infused with inhibitors of nitric oxide synthase and prostacyclins to inhibit the action of these two major endogenous endothelial vasodilators. This was performed in order to assess the effect of barometric pressure on mesenteric arteries isolated from the vasoactive influences of nitric oxide and prostacyclins.
The entire myograph system was enclosed within a barometric pressure controlled chamber, capable of being sealed and pressure-controlled when necessary (FIG. 11). A control pressure was established on the pressure sensor in relation to the atmospheric pressure denoted by the meteorological service of Canada (Edmonton station). Pressure conditions PB714 and PB674 were assigned as 40 mmHg and 80 mmHg below atmospheric pressure, respectively. The conditions were maintained through a pressure apparatus.
A pressure transducer and flow regulator coupled with a peristaltic pump mechanisms was set up so as to be manipulated from outside upon sealing the barometric pressure chamber around the myograph system. […]
Vessel diameters and wall thicknesses were recorded with the help of a microscope-coupled micrometer. […]

SMILES | maximal increase in lumen diameter, cumulative response curve to methylcholine (with L-NAME and meclofenamate (FIG. 4B)) | maximal increase in lumen diameter, cumulative response curve to methylcholine (without inhibitors (FIG. 4A)) | constriction or relaxation of vessel to drug administered in the bath
CC(=O)OC(C)C[N+](C)(C)C (stereo not shown) | 133% | 122% | no constriction to phenylephrine or relaxation
CNC[C@H](O)c1cccc(O)c1 [phenylephrine] | – | – | no constriction
